We go through eleven molecules from patent US4384118A, “4-(3-Iodopropargyloxy) pyrimidine derivatives” (SPOFA, spojene podniky pro zdravotnickou vyrobu, priority 1980, dated 1983).

Format in all cases: cell-based
The subject of test [1] is Trichophyton Mentagrophytes. Nature of the test: Minimum inhibitory concentration vs Trichophyton Mentagrophytes. The note with it: for activity against Trichophyton mentagrophytes compared with known antimycotic agents: comparison with best antimycotic agents previously known; for activity against Trichophyton mentagrophytes (in words): same range as the minimum inhibitory concentrations in Aspergillus niger, 0.3 to 0.7 μg/ml; for MIC: Table A, TM = Trichophyton Mentagrophytes, read-out: Minimum Inhibitory Concentrations. The source says: (§1) For comparative purposes, three of the compounds of formula (1) were compared with Clotrimazole and Haloprogine, well known prior art antimycotic compounds. Comparisons of minimum inhibitory concentration in μg/ml. were made with respect to four strains of […].

In another test the test system is Aspergillus Niger. Nature of the test: Minimum inhibitory concentration vs Aspergillus Niger.
Excerpt: as §1

A further test has as its system Microsporum gypseum. Nature of the test: Minimum inhibitory concentration vs Microsporum gypseum. The note with it: Nannizzia gypsea, Table B. The procedure: (§2) Additionally, certain compounds of the invention were evaluated with respect to other mold species. Thus, for example, 2-ethylthio-4-(3 iodopropargyloxy) pyrimidine was evaluated with respect to the species identified in Table B, below and the noted minimum inhibitory cencentrations determined: […]

The test system of the next test is Epidermophyton floccosum. Nature of the test: Minimum inhibitory concentration vs Epidermophyton floccosum. The note with it: Table B. The procedure:
as §2

The next test relates to Trichophyton rubrum. Nature of the test: Minimum inhibitory concentration vs Trichophyton rubrum. The note with it: Table B. The procedure:
as §2

The subject of test [2] is Trichophyton schoenleinii. Briefly: Minimum inhibitory concentration vs Trichophyton schoenleinii. The note with it: Table B. The procedure: as §2
A further test deals with Keratinomyces ajelloi. Briefly: Minimum inhibitory concentration vs Keratinomyces ajelloi. The note with it: Table B. The procedure:
as §2

In a further test the test system is Trichophyton verrucosum. Nature of the test: Minimum inhibitory concentration vs Trichophyton verrucosum. The note with it: Table B. The procedure:
as §2

Another test relates to Sporotrichum cejpii. Nature of the test: Minimum inhibitory concentration vs Sporotrichum cejpii. The note with it: Table B. The procedure: as §2
The subject of the next test is Microsporum Canis. Nature of the test: Minimum inhibitory concentration vs Microsporum Canis. The note with it: Table B. The procedure: as §2
For the next test, the system named is Candida Alicans. Briefly: Minimum inhibitory concentration vs Candida Alicans. The note with it: Table A, CA = Candida Alicans; read-out: Minimum Inhibitory Concentrations.
Excerpt: as §1

A further test concerns Sacharomyces Pastorianus. Nature of the test: Minimum inhibitory concentration vs Sacharomyces Pastorianus. The note with it: Table A, SP = Sacharomyces Pastorianus; read-out: Minimum Inhibitory Concentrations.
Excerpt: as §1

Where [3] appears, read: Aspergillus niger, read-out: minimum inhibitory concentration.
Where [4] appears, read: Table A, AN = Aspergillus Niger, read-out: Minimum Inhibitory Concentrations.

≈ marks a conversion by molar mass, not a printed value. Where two headings read alike, the source gives them in different places.

Take `COc1cnc(SC)nc1OCC#CI` [2-methylthio-5-methoxy-4-(3-iodopropargyloxy) pyrimidine]: in [1], the “activity against Trichophyton mentagrophytes compared with known antimycotic agents” value is given as “comparable with that of the best antimycotic agents previously known” and the “activity against Trichophyton mentagrophytes (in words)” value (“activity … (in words)” for short) is recorded as “lies in the same range”.
`CCSc1ncc(OC)c(OCC#CI)n1` [2-ethylthio-5-methoxy-4-(3-iodopropargyloxy) pyrimidine]: in the test with Aspergillus Niger (setting [3]), the MIC came to 0.03 µg/mL (≈ 0.0857 µM).
Take `CSc1nccc(OCC#CI)n1` [2-methylthio-4-(3-iodopropargyloxy) pyrimidine]: in [1], the “activity against Trichophyton mentagrophytes compared with known antimycotic agents” value was “comparable with that of the best antimycotic agents previously known” and the “activity … (in words)” value is listed as “lies in the same range”.
`CSc1ncc(Br)c(OCC#CI)n1` [2-methylthio-5-bromo-4-(3-iodopropargyloxy) pyrimidine]: the MIC with Aspergillus Niger (setting [3]) came to 0.01 µg/mL (≈ 0.026 µM).
As to `CCSc1nccc(OCC#CI)n1` [2-ethylthio-4-(3 iodopropargyloxy) pyrimidine], the MIC worked out at 0.3 µg/mL (≈ 0.937 µM) in the test on Microsporum gypseum; 0.3 µg/mL (≈ 0.937 µM) against Epidermophyton floccosum; 0.07 µg/mL (≈ 0.219 µM) in the test with Trichophyton rubrum; 0.03 µg/mL (≈ 0.0937 µM) in test [2]; 0.3 µg/mL (≈ 0.937 µM) against Keratinomyces ajelloi; 0.15 µg/mL (≈ 0.469 µM) in the test on Trichophyton verrucosum. Further, the MIC against Sporotrichum cejpii was 0.3 µg/mL (≈ 0.937 µM); in the test on Microsporum Canis, 0.15 µg/mL (≈ 0.469 µM).
For `CCOc1cnc(SC)nc1OCC#CI` [2-methylthio-5-ethoxy-4-(3-iodopropargyloxy) pyrimidine], in the test with Aspergillus Niger (setting [3]), the MIC was 0.07 µg/mL (≈ 0.2 µM).
On to `CCCSc1ncc(OC)c(OCC#CI)n1` [Compound I, 2 propylthio5-methoxy-4-(3 iodoprogargyloxy) pyrimidine], for which the MIC in the test on Aspergillus Niger (setting [4]) was 0.01 µg/mL (≈ 0.0275 µM); in the test on Candida Alicans, 3.1 µg/mL (≈ 8.51 µM); with Sacharomyces Pastorianus, 0.3 µg/mL (≈ 0.824 µM); in test [1], 0.07 µg/mL (≈ 0.192 µM).
Consider `Clc1ccccc1C(c1ccccc1)(c1ccccc1)n1ccnc1` [Clotrimazole, reference compound], for which the MIC in the test on Aspergillus Niger (setting [4]) turned out to be 3.1 µg/mL (≈ 8.99 µM); in the test on Candida Alicans it was 0.3 µg/mL (≈ 0.87 µM); in the test on Sacharomyces Pastorianus, 3.1 µg/mL (≈ 8.99 µM); in test [1] it was 0.03 µg/mL (≈ 0.087 µM).
Regarding `Clc1cc(Cl)c(OCC#CI)cc1Cl` [Haloprogine, reference compound], the MIC with Candida Alicans was 1.2 µg/mL (≈ 3.32 µM); in [1], 0.6 µg/mL (≈ 1.66 µM).
As to `C=CCSc1nccc(OCC#CI)n1` [Compound II, 2allylthio-4-(3-iodopropargyloxy) pyrimidine], the MIC in the test on Aspergillus Niger (setting [4]) turned out to be 0.3 µg/mL (≈ 0.903 µM); in the test with Candida Alicans, 0.7 µg/mL (≈ 2.11 µM); in the test on Sacharomyces Pastorianus, 0.15 µg/mL (≈ 0.452 µM); in test [1] it was 0.07 µg/mL (≈ 0.211 µM).
`COc1cnc(N)nc1OCC#CI` [2-amino-5-methoxy-4-(3-iodopropargyloxy) pyrimidine]: in [1], the “activity against Trichophyton mentagrophytes compared with known antimycotic agents” value is recorded as “comparable with that of the best antimycotic agents previously known” and the “activity … (in words)” value is “lies in the same range”.
